Experiments:
[1] = system: A549 (human lung carcinoma) cells; assay: Cell viability assay (CellTiter-Glo), A549; type: cell-based; settings: 72 h
Experimental: (§1) MIA PaCa-2 (human pancreatic carcinoma; ATCC CRL-1420) or A549 (human lung carcinoma; ATCC CCL-185) cells were cultured in RPMI 1640 medium containing 10% fetal bovine serum and 1× penicillin/streptomycin/L-glutamine. Cells were seeded in 384-well plates at a density of 1.67E+04 cells/mL and incubated at 37° C., 5% CO2, overnight. Serially-diluted compound or DMSO was added to the cells, and plates were incubated at 37° C., 5% CO2 for 72 h. Cell viability was measured using a CellTiter-Glo® Luminescent Cell Viability Assay kit (Promega) according to the manufacturer's protocol. The luminescence signal of treated samples was normalized to DMSO control, and data were analyzed using a 4-parameter logistic model to calculate IC50 values.

[2] = system: MIA PaCa-2 (human pancreatic carcinoma) cells; assay: Cell viability assay (CellTiter-Glo), MIA PaCa-2; type: cell-based; settings: 72 h
Experimental: as §1

[3] = biological target: GDP-bound KRAS protein (aa 1-169), containing both G12C and C118A amino acid substitutions (Homo sapiens, UniProt P01116, C118A/G12C); assay: Coupled nucleotide exchange assay (SOS-mediated, AlphaScreen); type: biochemical; settings: 2 h compound pre-incubation; read-out: Avg 2 h Coupled exchange IC50
Experimental: Coupled Nucleotide Exchange Assay:
For all subsequent steps, DTT was added to the reaction buffer at a final concentration of 1 mM. […] The assay plates were then read on a plate reader measuring luminescence signal. Signal intensity of compound-containing wells were normalized to DMSO control, and data were analyzed using a 4-parameter logistic model to calculate IC50 values.

GDP-bound KRAS protein (aa 1-169), containing both G12C and C118A amino acid substitutions, sequence (P01116 1-169 isoform P01116-2 G12C/C118A): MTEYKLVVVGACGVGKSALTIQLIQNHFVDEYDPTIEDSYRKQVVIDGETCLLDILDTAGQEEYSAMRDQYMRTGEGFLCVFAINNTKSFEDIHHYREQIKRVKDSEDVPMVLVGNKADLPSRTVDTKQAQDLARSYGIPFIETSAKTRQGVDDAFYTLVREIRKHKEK

| Compound | IC50 [1] | IC50 [2] | IC50 [3] |
| --- | --- | --- | --- |
| C=CC(=O)N1CC2(C1)CN(c1nc(N[C@H](CC(=O)NC)CC(C)C)c3ccccc3n1)CC2F (stereo partly drawn) [Example 1-27, (3S)-3-((2-(8-fluoro-2-(2-propenoyl)-2,6-diazaspiro[3.4]octan-6-yl)-4-quinazolinyl)amino)-N,5-dimethylhexanamide] | > 5000 nM | > 5000 nM | 3490 nM |
| C=CC(=O)N1CC2(C1)CN(c1nc3c(c(N[C@H](CC(=O)NC)CC(C)C)n1)CCC(C)C3)CC2F (stereo partly drawn) [Example 1-28, (3S)-3-((2-(8-fluoro-2-(2-propenoyl)-2,6-diazaspiro[3.4]octan-6-yl)-7-methyl-5,6,7,8-tetrahydro-4-quinazolinyl)amino)-N,5-dimethylhexanamide] | > 5000 nM | 189 nM | 196 nM |
| C=CC(=O)N1CC2(CCN(c3nc(N[C@H](CC(=O)NC)CC(C)C)c4ccc(Cl)cc4n3)C2)C1 [Example 1-30, (3S)-3-((7-chloro-2-(2-(2-propenoyl)-2,6-diazaspiro[3.4]octan-6-yl)-4-quinazolinyl)amino)-N,5-dimethylhexanamide] | 14600 nM | 112 nM | 265 nM |
| C=CC(=O)N1CC2(CCN(c3nc4c(c(N[C@H](CC(=O)NC)CC(C)C)n3)OCCC4)C2)C1 [Example 1-31, (3S)-N,5-dimethyl-3-((2-(2-(2-propenoyl)-2,6-diazaspiro[3.4]octan-6-yl)-7,8-dihydro-6H-pyrano[3,2-d]pyrimidin-4-yl)amino)hexanamide] | > 25000 nM | 261 nM | 428 nM |
| C=CC(=O)N1CC2(CCN(c3nc4c(c(N[C@H](CC(=O)NC)CC(C)C)n3)CCC(C(F)(F)F)C4)C2)C1 (stereo partly drawn) [Example 1-32, (3S)-N,5-dimethyl-3-((2-(2-(2-propenoyl)-2,6-diazaspiro[3.4]octan-6-yl)-7-(trifluoromethyl)-5,6,7,8-tetrahydro-4-quinazolinyl)amino)hexanamide] | > 25000 nM | 24 nM | 57 nM |
| C=CC(=O)N1CC2(CCN(c3nc4c(c(N[C@H](CC(=O)NC)CC(C)C)n3)CC(C)CC4)C2)C1 (stereo partly drawn) [Example 1-33, (3S)-N,5-dimethyl-3-((6-methyl-2-(2-(2-propenoyl)-2,6-diazaspiro[3.4]octan-6-yl)-5,6,7,8-tetrahydro-4-quinazolinyl)amino)hexanamide] | > 25000 nM | 350 nM | 446 nM |
| C=CC(=O)N1CC2(CCN(c3nc(N[C@H](CC(=O)NC)CC(C)C)c4ncc(C)cc4n3)C2)C1 [Example 1-34, (3S)-N,5-dimethyl-3-((7-methyl-2-(2-(2-propenoyl)-2,6-diazaspiro[3.4]octan-6-yl)pyrido[3,2-d]pyrimidin-4-yl)amino)hexanamide] | > 25000 nM | 217 nM | 372 nM |
| C=CC(=O)N1CC2(CCN(c3nc(N[C@H](CC(=O)NC)CC(C)C)c4ccc(C(F)(F)F)cc4n3)C2)C1 [Example 1-35, (3S)-N,5-dimethyl-3-((2-(2-(2-propenoyl)-2,6-diazaspiro[3.4]octan-6-yl)-7-(trifluoromethyl)-4-quinazolinyl)amino)hexanamide] | 10500 nM | 179 nM | 142 nM |
| C=CC(=O)N1CC2(CCN(c3nc(N[C@H](CC(=O)NC)CC(C)C)c4ncc(-c5nccs5)cc4n3)C2)C1 [Example 1-36, (3S)-N,5-dimethyl-3-((2-(2-(2-propenoyl)-2,6-diazaspiro[3.4]octan-6-yl)-7-(1,3-thiazol-2-yl)pyrido[3,2-d]pyrimidin-4-yl)amino)hexanamide] | > 5000 nM | 379 nM | 23 nM |
| C=CC(=O)N1CC2(CCN(c3nc(N[C@H](CC(=O)NC)CC(C)C)c4ncccc4n3)C2)C1 [Example 1-37, (3S)-N,5-dimethyl-3-((2-(2-(2-propenoyl)-2,6-diazaspiro[3.4]octan-6-yl)pyrido[3,2-d]pyrimidin-4-yl)amino)hexanamide] | > 25000 nM | 632 nM | 743 nM |
| C=CC(=O)N1CC2(CCN(c3nc(N[C@H](CC(=O)NC)CC(C)C)c4ncc(C5CC5)cc4n3)C2)C1 [Example 1-38, (3S)-3-((7-cyclopropyl-2-(2-(2-propenoyl)-2,6-diazaspiro[3.4]octan-6-yl)pyrido[3,2-d]pyrimidin-4-yl)amino)-N,5-dimethylhexanamide] | > 5000 nM | 959 nM | 60 nM |
| C=CC(=O)N1CC2(CCN(c3nc4c(c(N[C@H](Cc5nc(C)no5)CC(C)C)n3)CCC(C)(C)C4)C2)C1 [Example 1-39, 1-(6-(7,7-dimethyl-4-(((2S)-4-methyl-1-(3-methyl-1,2,4-oxadiazol-5-yl)-2-pentanyl)amino)-5,6,7,8-tetrahydro-2-quinazolinyl)-2,6-diazaspiro[3.4]octan-2-yl)-2-propen-1-one] | > 25000 nM | 790 nM | 685 nM |
| C=CC(=O)N1CC2(CCN(c3nc(N[C@H](CC(=O)NC)CC(C)C)c4ccc(C5CC5)cc4n3)C2)C1 [Example 1-40, (3S)-3-((7-cyclopropyl-2-(2-(2-propenoyl)-2,6-diazaspiro[3.4]octan-6-yl)-4-quinazolinyl)amino)-N,5-dimethylhexanamide] | 19000 nM | 169 nM | 84 nM |
| C=CC(=O)N1CC2(CCN(c3nc(N[C@H](CC(=O)NC)CC(C)C)c4cc(C)ccc4n3)C2)C1 [Example 1-41, (3S)-N,5-dimethyl-3-((6-methyl-2-(2-(2-propenoyl)-2,6-diazaspiro[3.4]octan-6-yl)-4-quinazolinyl)amino)hexanamide] | > 25000 nM | 1230 nM | 779 nM |
| C=CC(=O)N1CC2(CCN(c3nc(N[C@H](CC(=O)NC)CC(C)C)c4ncc(OC)cc4n3)C2)C1 [Example 1-42, (3S)-3-((7-methoxy-2-(2-(2-propenoyl)-2,6-diazaspiro[3.4]octan-6-yl)pyrido[3,2-d]pyrimidin-4-yl)amino)-N,5-dimethylhexanamide] | > 5000 nM | 296 nM | 22 nM |
| C=CC(=O)N1CC2(CCN(c3nc4c(c(N[C@H](Cc5nccs5)CC(C)C)n3)CCC(C)(C)C4)C2)C1 [Example 1-43, 1-(6-(7,7-dimethyl-4-(((2S)-4-methyl-1-(1,3-thiazol-2-yl)-2-pentanyl)amino)-5,6,7,8-tetrahydro-2-quinazolinyl)-2,6-diazaspiro[3.4]octan-2-yl)-2-propen-1-one] | 13500 nM | 205 nM | 121 nM |
| C=CC(=O)N1CC2(CCN(c3nc4c(c(N[C@H](Cc5noc(C)n5)CC(C)C)n3)CCC(C)(C)C4)C2)C1 [Example 1-44, 1-(6-(7,7-dimethyl-4-(((2S)-4-methyl-1-(5-methyl-1,2,4-oxadiazol-3-yl)-2-pentanyl)amino)-5,6,7,8-tetrahydro-2-quinazolinyl)-2,6-diazaspiro[3.4]octan-2-yl)-2-propen-1-one] | 21900 nM | 316 nM | 380 nM |
| C=CC(=O)N1CC2(CCN(c3nc4c(c(N[C@@H](CC(C)C)Cn5cncn5)n3)CCC(C)(C)C4)C2)C1 [Example 1-45, 1-(6-(7,7-dimethyl-4-(((2S)-4-methyl-1-(1H-1,2,4-triazol-1-yl)-2-pentanyl)amino)-5,6,7,8-tetrahydro-2-quinazolinyl)-2,6-diazaspiro[3.4]octan-2-yl)-2-propen-1-one] | > 25000 nM | 985 nM | 1510 nM |
| C=CC(=O)N1CC2(CCN(c3nc4c(c(N[C@@H](CC(C)C)Cn5cccn5)n3)CCC(C)(C)C4)C2)C1 [Example 1-46, 1-(6-(7,7-dimethyl-4-(((2S)-4-methyl-1-(1H-pyrazol-1-yl)-2-pentanyl)amino)-5,6,7,8-tetrahydro-2-quinazolinyl)-2,6-diazaspiro[3.4]octan-2-yl)-2-propen-1-one] | 20200 nM | 122 nM | 162 nM |
| C=CC(=O)N1CC2(CCN(c3nc4c(c(N[C@H](Cc5ccon5)CC(C)C)n3)CCC(C)(C)C4)C2)C1 [Example 1-48, 1-(6-(7,7-dimethyl-4-(((2S)-4-methyl-1-(1,2-oxazol-3-yl)-2-pentanyl)amino)-5,6,7,8-tetrahydro-2-quinazolinyl)-2,6-diazaspiro[3.4]octan-2-yl)-2-propen-1-one] | 15800 nM | 49 nM | 53 nM |
| C=CC(=O)N1CC2(CCN(c3nc4c(c(N[C@H](Cc5cc(C)no5)CC(C)C)n3)CCC(C)(C)C4)C2)C1 [Example 1-49, 1-(6-(7,7-dimethyl-4-(((2S)-4-methyl-1-(3-methyl-1,2-oxazol-5-yl)-2-pentanyl)amino)-5,6,7,8-tetrahydro-2-quinazolinyl)-2,6-diazaspiro[3.4]octan-2-yl)-2-propen-1-one] | 11600 nM | 218 nM | 93 nM |
| C=CC(=O)N1CC2(CCN(c3nc4c(c(N[C@H](CC(=O)NC)Cc5ccccc5)n3)CCC(C)(C)C4)C2)C1 [Example 1-50, (3S)-3-((7,7-dimethyl-2-(2-(2-propenoyl)-2,6-diazaspiro[3.4]octan-6-yl)-5,6,7,8-tetrahydro-4-quinazolinyl)amino)-N-methyl-4-phenylbutanamide] | > 25000 nM | 587 nM | 1310 nM |

Reference: patent publication US20230406860A1, “HETEROCYCLIC SPIRO COMPOUNDS AND METHODS OF USE” (AMGEN INC., priority 2020, published 2023)
